# Reference: patent US11110080B2, “Small molecule inhibitors of bacterial efflux pumps and methods of using same” (The Regents of the University of Colorado, a body Corporate, priority 2017, dated 2021)
# Entries after “also recorded” stand apart in the source; their conditions may differ.
# Tests used:
# Type in all cases: cell-based, Salmonella enterica serovar Typhimurium
# [1] = system: extracellular S.Tm grown in MHB broth; assay: Broth activity assay (growth / MIC in Mueller Hinton Broth); conditions: Salmonella enterica, three Salmonella strains SL1344, MAR1, S10801
# Method: (§1) Overnight Salmonella cultures were washed 3 times in PBS and diluted to an OD of 0.01 in Mueller Hinton Broth in 96-well flat bottom plates. Compound was added using a pin tool (CyBio) or manually, yielding a final concentration of no more than 1% DMSO. Plates were grown at 37° C. shaking and OD600 was monitored using a BioTek Eon incubator shaker microplate absorbance reader. For experiments in defined media, bacteria were grown in M9 minimal media supplemented with 100 mM Tris pH 7.4, 0.35% glycerol, 0.002% histidine, 10 mM MgCl2, and 0.1% casamino acids. Where indicated, media was supplemented with 5 μg/ml polymyxin B or 0.2 mM H2O2. For experiments with LL-37, bacteria were grown in M9 minimal media supplemented with 0.4% dextrose, 0.004% histidine, 1 mM MgSO4, and 5 μg/ml LL-37. For checkerboard assays, MIC was defined as the concentration at which no growth was visually observed.
# S.Tm efflux pumps [2] = assay: Nile Red efflux assay; conditions: 20 minutes incubation in 75 μM
# S.Tm efflux pumps [3] = assay: Nile Red efflux assay
# Description: Because Hoechst and other dyes commonly used to assess efflux bind cellular components, direct measurement of efflux is not possible using these methods; instead, the Hoechst assay measures dye accumulation, the net result of entry and efflux. Further, the slow off-rate of Hoechst entails that efflux pumps have no effect on dye already bound to DNA. As a result, compounds which increase Hoechst accumulation may actually enhance dye entry by altering porins or disrupting the membrane. To more specifically measure efflux pump activity, a second technique was employed using the dye Nile Red, a lipophilic membrane-partitioning dye which fluoresces in nonpolar environments. Because Nile Red is not known to bind cellular components, to directly observe efflux cells were preloaded with the dye in the absence of glucose to reduce efflux pump activity (FIG. 7A). Upon addition of glucose, bacteria rapidly effluxed Nile Red and fluorescence returned to baseline levels (FIG. 7B, top panel). […] The initial measured fluorescence was lower for DMSO-treated cells (upper dotted line) than for PAβN-treated cells due to glucose-independent efflux during sample preparation (FIG. 8A). Next, it was determined whether efflux pump activity is restored after removal of PAβN. Bacteria were incubated with compound for 15 minutes, pelleted and resuspended in buffer lacking compound, and then stimulated with glucose (FIGS. 7C, 7E).
# Nile Red assays were adapted from an established protocol. Briefly, overnight Salmonella cultures were grown in Mueller-Hinton cation-adjusted broth (Sigma), washed, and resuspended at an OD600 of 2.0. Cells were incubated in 10 μM Nile Red for 3 hours at 37° C. with aeration, then moved to room temperature for 1 hour. After pelleting at 2000× g, dye-loaded cells were aliquoted and combined with compound at the indicated concentrations. Two hundred microliters was loaded into 96-well black walled plates (Greiner) and read using a Varioskan Flash Multimode Reader with 540 nm excitation and 625 nm emission filters. We observed that during loading into plates (˜20 minutes), bacteria were able to efflux Nile Red even in the absence of glucose (FIG. 8A). To activate efflux, glucose was added to a final concentration of 2 mM. In some experiments, bacteria were treated with drug for 15 minutes, pelleted at 16,000×g, resuspended in fresh buffer, and stimulated with 2 mM glucose. All wash and incubation steps were performed in PBS with 1 mM MgCl2; incubations were performed in glass tubes to reduce adhesion of Nile Red.
# S.Tm efflux pumps [4] = assay: Hoechst 33342 accumulation assay
# Method: Efflux pumps (EPs) represent a key pathogen virulence strategy to protect against host antimicrobials as well as therapeutic antibiotics. […] To uncover putative EPMs within our collection of hits, 58 repurchased compounds were screened in a Hoechst accumulation assay. Bacteria were incubated with Hoechst 33342, a dye which fluoresces when bound to DNA.
# Hoechst accumulation assays were performed essentially as described in the literature. Briefly, overnight Salmonella cultures were washed 3 times in PBS and diluted to an OD of 0.1 in PBS with 2.5 μM Hoechst 33342 in the presence of the indicated concentrations of compounds. Fluorescence was monitored on a Biotek Synergy 2 with a 360/40 nm excitation filter and 460/40 nm emission filter. The maximum Hoechst fluorescence over 60 minutes of incubation was normalized to the signal from the equivalent number of heat-killed bacteria, after subtraction of autofluroescent signal determined from compound incubated in the absence of bacteria. Curve fitting to determine EC50s was performed using GraphPad Prism.
# [5] = system: S.Tm wild-type SL1344, MAR1 and S10801; assay: microbe, parasite or virus in culture; conditions: MAR1 and S10801
# Method: Increased expression or function of efflux pumps often contributes to clinical multidrug resistance. Therefore, whether the EPMs re-sensitize two multidrug resistant strains of S.Tm to tetracycline was tested. Tetracycline is an antibiotic exported by AcrAB. The MAR1 strain is derived from wild-type SL1344 was selected by exposure to tetracycline, and has increased expression of the AcrAB efflux pump. S10801 is an MDR strain isolated from the mesenteric lymph node of a septic calf and is resistant to tetracycline, ampicillin, chloramphenicol, nalidixic acid, and triple sulfa. The basis of multi-drug resistance in this strain is unknown.
# as §1
# S.Tm = assay: Swimming assay in soft agar (proton motive force); conditions: 50 mM, 10 μl on disk (500×, 125×, ~62.5× the MIC for EPM30, EPM35, EPM43)
# Method: One way to inhibit efflux pumps is to disrupt the proton motive force, which is required for transport by some EPs. […] Bacteria were injected into the center of 0.25% agar plates, and 10 μl of compound was added to paper disks on the periphery. […] Also ampicillin and rifampicin were tested. We plotted the halo radius versus the concentration as the fold above the MIC (FIG. 9G). […] Next, it was determined whether PAβN inhibited swimming; PAβN is thought to disrupt membranes over long incubations. […] Finally, the EPMs at […] were tested (FIGS. 9D-F).
# Saturated overnight cultures were diluted to an OD600 of 0.01 in LB and 1 μL was injected into the center of low agar (0.25%) LB plates. Ten microliters of the indicated compounds were added to sterilized Whatman paper disks (diameter 0.7 cm) placed equidistant from the plate center.
compound,measurement,setting,value
CC(C)c1nc(NC(=N)N)sc1Br [EPM30],MIC,[1],100 µM
same,bacterial integrity and viability,S.Tm efflux pumps [2],remain intact and viable
same,glucose-activated efflux of Nile Red,S.Tm efflux pumps [3]; 75 μM,fully inhibited efflux
same,Nile Red efflux after washout of compound,"S.Tm efflux pumps [3]; 15 minutes with compound, washed, then glucose",partially restored efflux; also recorded: partially restored Nile Red export
same,Nile Red fluorescence in the absence of glucose (basal loss),S.Tm efflux pumps [3]; no glucose,immediate reduction in fluorescence
same,Hoechst assay EC50 relative to PAβN,S.Tm efflux pumps [4],lower than that of PAβN
same,Hoechst accumulation / fluorescence,"S.Tm efflux pumps [4]; wild-type S.Tm, 60 minutes",increased S.Tm accumulation of Hoechst in a dose-dependent manner; also recorded: fluorescence comparable to that of PAβN
same,sensitivity of MDR S.Tm to tetracycline,[5],not
same,halo in swimming assay,S.Tm,formed a halo
